Laboratory results as given in patent US11331369B2, “Endoparasitic depsipeptides” (Zoetis Services LLC, priority 2017, dated 2022).

What follows are compounds tested on third stage larvae of Haemonchus contortus (assay: Haemonchus contortus L3 (HcL3) Assay). Conditions: 96 h, read-out: HcL3 Minimum Effective Dose (MED).
Assay type: cell-based

How did the minimal effective concentration turn out when `CC(C)C[C@H]1C(=O)O[C@H](Cc2ccc(Cn3cc(O)cn3)cc2)C(=O)N(C)[C@@H](CC(C)C)C(=O)O[C@H](C)C(=O)N(C)[C@@H](CC(C)C)C(=O)O[C@H](Cc2ccc(Cn3cc(O)cn3)cc2)C(=O)N(C)[C@@H](CC(C)C)C(=O)O[C@H](C)C(=O)N1C` [Example 1b-18, (3S,6R,9S,12R,15S,18R,21S,24R)-6,18-bis(4-((4-hydroxy-1H-pyrazol-1-yl)methyl)benzyl)-3,9,15,21-tetraisobutyl-4,10,12,16,22,24-hexamethyl-1,7,13,19-tetraoxa-4,10,16,22-tetraazacyclotetracosan-2,5,8,11,14,17,20,23-octaone] was run?
The minimal effective concentration was no more than 1 µM.

Which minimal effective concentration does the source give for `CC(C)C[C@H]1C(=O)O[C@H](Cc2ccc(Cn3cc(N4CCOCC4)cn3)cc2)C(=O)N(C)[C@@H](CC(C)C)C(=O)O[C@H](C)C(=O)N(C)[C@@H](CC(C)C)C(=O)O[C@H](Cc2ccc(Cn3cc(N4CCOCC4)cn3)cc2)C(=O)N(C)[C@@H](CC(C)C)C(=O)O[C@H](C)C(=O)N1C` [Example 1b-179, (3S,6R,9S,12R,15S,18R,21S,24R)-3,9,15,21-tetraisobutyl-4,6,10,16,18,22-hexamethyl-12,24-bis(4-((4-morpholino-1H-pyrazol-1-yl)methyl)benzyl)-1,7,13,19-tetraoxa-4,10,16,22-tetraazacyclotetracosan-2,5,8,11,14,17,20,23-octaone] here?
Its minimal effective concentration is 1 to 10 µM.

For `CC(C)C[C@H]1C(=O)O[C@H](Cc2ccc(Cn3nccc3C(F)F)cc2)C(=O)N(C)[C@@H](CC(C)C)C(=O)O[C@H](C)C(=O)N(C)[C@@H](CC(C)C)C(=O)O[C@H](Cc2ccc(Cn3nccc3C(F)F)cc2)C(=O)N(C)[C@@H](CC(C)C)C(=O)O[C@H](C)C(=O)N1C` [Example 1b-211, (3S,6R,9S,12R,15S,18R,21S,24R)-6,18-bis(4-((5-(difluoromethyl)-1H-pyrazol-1-yl)methyl)benzyl)-3,9,15,21-tetraisobutyl-4,10,12,16,22,24-hexamethyl-1,7,13,19-tetraoxa-4,10,16,22-tetraazacyclotetracosan-2,5,8,11,14,17,20,23-octaone], which minimal effective concentration is on record?
The minimal effective concentration was no more than 1 µM.

For `CC(C)C[C@H]1C(=O)O[C@H](Cc2ccc(C(C)(C)n3cc([N+](=O)[O-])cn3)cc2)C(=O)N(C)[C@@H](CC(C)C)C(=O)O[C@H](C)C(=O)N(C)[C@@H](CC(C)C)C(=O)O[C@H](Cc2ccc(C(C)(C)n3cc([N+](=O)[O-])cn3)cc2)C(=O)N(C)[C@@H](CC(C)C)C(=O)O[C@H](C)C(=O)N1C` [Example 1c-7, (3S,6R,9S,12R,15S,18R,21S,24R)-3,9,15,21-tetraisobutyl-4,6,10,16,18,22-hexamethyl-12,24-bis(4-(2-(4-nitro-1H-pyrazol-1-yl)propan-2-yl)benzyl)-1,7,13,19-tetraoxa-4,10,16,22-tetraazacyclotetracosan-2,5,8,11,14,17,20,23-octaone], which minimal effective concentration is on record?
Its minimal effective concentration is no more than 1 µM.

Which minimal effective concentration does the source give for `Cc1cnn(C(C)(C)c2ccc(C[C@H]3OC(=O)[C@H](CC(C)C)N(C)C(=O)[C@@H](C)OC(=O)[C@H](CC(C)C)N(C)C(=O)[C@@H](Cc4ccc(C(C)(C)n5cc(C)cn5)cc4)OC(=O)[C@H](CC(C)C)N(C)C(=O)[C@@H](C)OC(=O)[C@H](CC(C)C)N(C)C3=O)cc2)c1` [Example 1c-9, (3S,6R,9S,12R,15S,18R,21S,24R)-3,9,15,21-tetraisobutyl-4,6,10,16,18,22-hexamethyl-12,24-bis(4-(2-(4-methyl-1H-pyrazol-1-yl)propan-2-yl)benzyl)-1,7,13,19-tetraoxa-4,10,16,22-tetraazacyclotetracosan-2,5,8,11,14,17,20,23-octaone] here?
The minimal effective concentration was no more than 1 µM.

For `CC(C)C[C@H]1C(=O)O[C@H](Cc2ccc(C(C)(C)n3cc(Br)cn3)cc2)C(=O)N(C)[C@@H](CC(C)C)C(=O)O[C@H](C)C(=O)N(C)[C@@H](CC(C)C)C(=O)O[C@H](Cc2ccc(C(C)(C)n3cc(Br)cn3)cc2)C(=O)N(C)[C@@H](CC(C)C)C(=O)O[C@H](C)C(=O)N1C` [Example 1c-11, (3S,6R,9S,12R,15S,18R,21S,24R)-6,18-bis(4-(2-(4-bromo-1H-pyrazol-1-yl)propan-2-yl)benzyl)-3,9,15,21-tetraisobutyl-4,10,12,16,22,24-hexamethyl-1,7,13,19-tetraoxa-4,10,16,22-tetraazacyclotetracosan-2,5,8,11,14,17,20,23-octaone], which minimal effective concentration is on record?
Its minimal effective concentration is no more than 1 µM.

For `CC(C)C[C@H]1C(=O)O[C@H](Cc2ccc(Cn3cc(O)cn3)cc2)C(=O)N(C)[C@@H](CC(C)C)C(=O)O[C@H](C)C(=O)N(C)[C@@H](CC(C)C)C(=O)O[C@H](Cc2ccccc2)C(=O)N(C)[C@@H](CC(C)C)C(=O)O[C@H](C)C(=O)N1C` [Example 2-30, (3S,6R,9S,12R,15S,18R,21S,24R)-6-benzyl-18-(4-((4-hydroxy-1H-pyrazol-1-yl)methyl)benzyl)-3,9,15,21-tetraisobutyl-4,10,12,16,22,24-hexamethyl-1,7,13,19-tetraoxa-4,10,16,22-tetraazacyclotetracosan-2,5,8,11,14,17,20,23-octaone], which minimal effective concentration is on record?
The minimal effective concentration was 1 to 10 µM.

Which minimal effective concentration does the source give for `CC(C)C[C@H]1C(=O)O[C@H](Cc2ccc(Cn3cc(C(N)=O)cn3)cc2)C(=O)N(C)[C@@H](CC(C)C)C(=O)O[C@H](C)C(=O)N(C)[C@@H](CC(C)C)C(=O)O[C@H](Cc2ccccc2)C(=O)N(C)[C@@H](CC(C)C)C(=O)O[C@H](C)C(=O)N1C` [Example 2-53, 1-(4-(((2R,5S,8R,11S,14R,17S,20R,23S)-14-benzyl-5,11,17,23-tetraisobutyl-4,8,10,16,20,22-hexamethyl-3,6,9,12,15,18,21,24-octaoxo-1,7,13,19-tetraoxa-4,10,16,22-tetraazacyclotetracosan-2-yl)methyl)benzyl)-1H-pyrazole-4-carboxamide] here?
The minimal effective concentration was 1 to 10 µM.

How did the minimal effective concentration turn out when `CC(C)C[C@H]1C(=O)O[C@H](Cc2cccc(Cn3cccn3)c2)C(=O)N(C)[C@@H](CC(C)C)C(=O)O[C@H](C)C(=O)N(C)[C@@H](CC(C)C)C(=O)O[C@H](Cc2ccc(Cn3cccn3)cc2)C(=O)N(C)[C@@H](CC(C)C)C(=O)O[C@H](C)C(=O)N1C` [Example 3-1, (3S,6R,9S,12R,15S,18R,21S,24R)-3,9,15,21-tetraisobutyl-4,6,10,16,18,22-hexamethyl-12-[[3-(pyrazol-1-ylmethyl)phenyl]methyl]-24-[[4-(pyrazol-1-ylmethyl)phenyl]methyl]-1,7,13,19-tetraoxa-4,10,16, 22-tetrazacyclotetracosane-2,5,8,11,14,17,20,23-octaone] was run?
The minimal effective concentration was 1 to 10 µM.

With `Cc1cnn(Cc2ccc(C[C@H]3OC(=O)[C@H](CC(C)C)N(C)C(=O)[C@@H](C)OC(=O)[C@H](CC(C)C)N(C)C(=O)[C@@H](Cc4cccc(Cn5cc(C)cn5)c4)OC(=O)[C@H](CC(C)C)N(C)C(=O)[C@@H](C)OC(=O)[C@H](CC(C)C)N(C)C3=O)cc2)c1` [Example 3-2, (3S,6R,9S,12R,15S,18R,21S,24R)-3,9,15,21-tetraisobutyl-4,6,10,16,18,22-hexamethyl-12-[[3-[(4-methylpyrazol-1-yl)methyl]phenyl]methyl]-24-[[4-[(4-methylpyrazol-1-yl)methyl]phenyl]methyl]-1,7,13,19-tetraoxa-4,10,16,22-tetrazacyclotetracosane-2,5,8,11,14,17,20,23-octaone] as the compound, how does the minimal effective concentration read?
Its minimal effective concentration is 1 to 10 µM.

`CC(C)C[C@H]1C(=O)O[C@H](Cc2cccc(Cn3cc(Br)cn3)c2)C(=O)N(C)[C@@H](CC(C)C)C(=O)O[C@H](C)C(=O)N(C)[C@@H](CC(C)C)C(=O)O[C@H](Cc2ccc(Cn3cc(Br)cn3)cc2)C(=O)N(C)[C@@H](CC(C)C)C(=O)O[C@H](C)C(=O)N1C` [Example 3-3, (3S,6R,9S,12R,15S,18R,21S,24R)-6-[[3-[(4-bromopyrazol-1-yl)methyl]phenyl]methyl]-18-[[4-[(4-bromopyrazol-1-yl)methyl]phenyl]methyl]-3,9,15,21-tetraisobutyl-4,10,12,16,22,24-hexamethyl-1,7,13,19-tetraoxa-4,10,16,22-tetrazacyclotetracosane-2,5,8,11,14,17,20,23-octaone] was tested. Which minimal effective concentration did it give?
Its minimal effective concentration is 1 to 10 µM.

For `COc1cnn(Cc2ccc(C[C@H]3OC(=O)[C@H](CC(C)C)N(C)C(=O)[C@@H](C)OC(=O)[C@H](CC(C)C)N(C)C(=O)[C@@H](Cc4cccc(Cn5cc(OC)cn5)c4)OC(=O)[C@H](CC(C)C)N(C)C(=O)[C@@H](C)OC(=O)[C@H](CC(C)C)N(C)C3=O)cc2)c1` [Example 3-27, (3S,6R,9S,12R,15S,18R,21S,24R)-3,9,15,21-tetraisobutyl-6-(3-((4-methoxy-1H-pyrazol-1-yl)methyl)benzyl)-18-(4-((4-methoxy-1H-pyrazol-1-yl)methyl)benzyl)-4,10,12,16,22,24-hexamethyl-1,7,13,19-tetraoxa-4,10,16,22-tetraazacyclotetracosan-2,5,8,11,14,17,20,23-octaone], which minimal effective concentration is on record?
Its minimal effective concentration is 1 to 10 µM.

Which minimal effective concentration does the source give for `CC(C)C[C@H]1C(=O)O[C@H](Cc2ccc(CN3CCOCC3)cc2)C(=O)N(C)[C@@H](CC(C)C)C(=O)O[C@H](C)C(=O)N(C)[C@@H](CC(C)C)C(=O)O[C@H](Cc2ccc(CN3CCOCC3)cc2)C(=O)N(C)[C@@H](CC(C)C)C(=O)O[C@H](C)C(=O)N1C` [Example 9-1, (3S,6R,9S,12R,15S,18R,21S,24R)-3,9,15,21-tetraisobutyl-4,6,10,16,18,22-hexamethyl-12,24-bis(4-(morpholinomethyl)benzyl)-1,7,13,19-tetraoxa-4,10,16,22-tetraazacyclotetracosan-2,5,8,11,14,17,20,23-octaone] here?
The minimal effective concentration was 1 to 10 µM.

Each compound was assayed on microfilariae of Dirofilaria immitis (assay: Dirofilaria immitis, Microfilaria (DiMF) In vitro Assay). Conditions: 72 h, read-out: DiMF Minimum Effective Dose (MED), approximately 72 hours incubation, microfilariae assessed for survival or paralysis.
Assay type: cell-based

For `CC(C)C[C@H]1C(=O)O[C@H](Cc2ccc(CN3CCSc4ccccc43)cc2)C(=O)N(C)[C@@H](CC(C)C)C(=O)O[C@H](C)C(=O)N(C)[C@@H](CC(C)C)C(=O)O[C@H](Cc2ccccc2)C(=O)N(C)[C@@H](CC(C)C)C(=O)O[C@H](C)C(=O)N1C` [Example 10-41, (3S,6R,9S,12R,15S,18R,21S,24R)-6-benzyl-18-(4-((2,3-dihydro-4H-benzo[b][1,4]thiazin-4-yl)methyl)benzyl)-3,9,15,21-tetraisobutyl-4,10,12,16,22,24-hexamethyl-1,7,13,19-tetraoxa-4,10,16,22-tetraazacyclotetracosan-2,5,8,11,14,17,20,23-octaone], which minimal effective concentration is on record?
The minimal effective concentration was 0.01 to 0.1 µM.
